Measurements from US5438135A, “Water-soluble tetraazaporphins and fluorochrome for labeling” (Hitachi Chemical Company, priority 1991, dated 1995).
Read-outs that look alike come from different tables or passages of the source.

Tests used:
[1] = test system: anti-morphine monoclonal antibody; type: binding
Description: For morphine, aminomorphine and the above-mentioned fluorochrome-labeled morphines, relative immuno-affinity for anti-morphine monoclonal antibody was measured using a competitive reaction in which they competed with tritium-labeled morphine.

Human β-globin gene = experiment: Detection of β-globin gene in human DNA by PCR with labeled primers, fluorescence intensity of eluate; details: Triton X-100, laser 680 nm
Description: Human β-globin gene was detected by a gene detection method using the PCR (Polymorase Chain Reaction) method.
Twenty cycles of gene amplification was carried out (the total volume of solution: 100 μl) according to the protocol of Perkin-Elmer-Cetus Corporation by using human placental DNA (1 μg), each of the labeled primers, i.e., illustrative compound No.-[…], synthesized in the manner described above (300 ng), HO-[…] (300 ng), a nonionic surfactant, and TaqDNA polymerase (Perkin-Elmer-Cetus Corporation).
Human placental DNA (1 μg), the same illustrative compound No.-[…] as in sample 1 (300 ng), HO-[…] (300 ng) and a nonionic surfactant were added to a reaction solution containing no TaqDNA polymerase which had been prepared according to the protocol of Perkin-Elmer-Cetus Corporation (the total volume of the solution: 100 μl). […]
After washing with buffer solution A (500 μl) and buffer solution A containing 5% ethanol (500 μl), elution was carried out using buffer solution A containing 10% ethanol (500 μl). The pH of the eluate was adjusted to about 8, and fluorescence intensity was measured by means of a photodiode array by using a semiconductor laser as an exciting light source. […]

[2] = test system: DNA having a known base sequence; experiment: Analysis of the base sequence of DNA (Sanger reaction with labeled primers, DNA sequencer equipped with a semiconductor laser); details: Triton X-100; semiconductor laser 680 nm
Description: A DNA having a known base sequence was used as a sample. Sanger reaction was carried out for the 4 kinds of bases using each of the labeled primers synthesized in Examples 19 to 25 or primers having a tetraazaporphin attached thereto through a linker synthesized in the same manner as in Examples 19 to 25. The DNA fragments thus obtained were separated by electrophoresis in different lanes for the 4 reaction systems, respectively, and analyzed by means of a DNA sequencer equipped with a semiconductor laser. The reaction systems contained a nonionic surfactant as an addition if necessary.
Each of the phthalocyanines disclosed in International Application Number PCT/US89/03807 was attached to the oligonucleotide primer obtained in Example 18, according to the methods of grafted patents and the methods described in Examples 19 to 25 of this invention. Using each of the phthalocyanine-attached oligonucleotides thus obtained, the base sequence of DNA was analyzed in the same manner as in Example 26.

[3] = Measurement of fluorescence quantum yield (relative quantum yield method); type: physicochemical; details: Methanol
Description: For the tetraazaporphins obtained in Examples 1 to 11 and tetraaxzaporphins of this invention obtained in the same manner as in Examples 1 to 11, fluorescence quantum yield was measured according to the method for measuring relative quantum yield described in a reference [J. Photochem. Photobiol, A. Chemistry, vol. 45, p. 117-121 (1988)] using 1,1',3,3,3',3'-hexamethylindotricarbocyanine perchlorate or oxazine-720 as a standard substance in the near infrared region. As is clear from Tables 10 to 12, all of the fluorochromes for labeling of this invention show a sufficient fluorescence quantum yield.

Compound: 3-(4-aminobutyl)morphine [Aminomorphine]
- Relative affinity [1]: 1

Compound: CN1CC[C@]23c4c5ccc(O)c4O[C@H]2[C@@H](O)C=C[C@H]3[C@H]1C5 [Morphine]
- Relative affinity ([1]; relative to morphine, competitive reaction with tritium-labeled morphine): 1

Compound: Tetraazaporphin-labeled primer 62: oligonucleotide primer 5'-GTTTCCCAGTCACGAC-3' labeled with illustrative compound No. 62 (labeled with tetraazaporphin compound No. 62, position not given here)
- Relative intensity Sample 1 (Human β-globin gene; Sample 1 (with TaqDNA polymerase, 20 cycles)): 6
- Relative intensity Sample 2 (Human β-globin gene; Sample 2 (no TaqDNA polymerase)): 134
- Number of bases of DNA [2]: 350
- Precision [2]: 99.7%

Compound: sodium bis(tributylsiloxy)silicon-tetraphenylthionaphthalocyanine octacarboxylate [Illustrative compound No. 1]
- Fluorescence quantum yield ([3]; excitation wavelength 700 nm): 0.33

Compound: sodium bis(tributylsiloxy)silicon-tetraphenylthionaphthalocyaninesulfonate [Illustrative compound No. 6]
- Fluorescence quantum yield ([3]; excitation wavelength 700 nm): 0.30

Compound: sodium bis(tributylsiloxy)silicon-tetraphenylthioquinolocyanineoctacarboxylate [Illustrative compound No. 21]
- Fluorescence quantum yield ([3]; excitation wavelength 650 nm): 0.52

Compound: sodium bis(trihydroxyneopentoxy)silicon-tetraphenylthionaphthalocyanineoctacarboxylate [Illustrative compound No. 11]
- Fluorescence quantum yield ([3]; excitation wavelength 700 nm): 0.34

Compound: sodium bis(tripropylsiloxy)silicon-tetraethylthionaphthalocyaninetetracarboxylate [Illustrative compound No. 16]
- Fluorescence quantum yield ([3]; excitation wavelength 700 nm): 0.32
